Earlier results in patent publication US20160199437A1, “THERAPEUTIC COMPOSITIONS INCLUDING IRON CHELATORS AND USES THEREOF” (priority 2015, published 2016).

Tested on: several mammalian cell types
Conditions: energy-independent manner; cited from earlier work

Substance: 2′,6′-Dmt-D-Arg-Phe-Lys-NH2
- penetration of the plasma membrane: readily penetrates the plasma membrane
